Consider one compound from paper PMC7154053, “Chemical, Metabolic, and Cellular Characterization of a FtsZ Inhibitor Effective Against Burkholderia cenocepacia” (Frontiers in Microbiology, 2020).

SMILES strings stand for the structures. Values after ≈ are worked out from the molar mass of the structure shown. Read-outs that look alike come from different tables or passages of the source.

One assay concerns E. coli ATCC 25922. The experiment in a line: MIC, 2-fold microdilution, resazurin method. It is filed as cell-based. Particulars: Escherichia coli, ATCC25922. Background: Broth dilution looks for growth in wells or tubes with falling amounts of substance.
The subject of a further assay is P. aeruginosa PAO1. Briefly: MIC, 2-fold microdilution, resazurin method. It is filed as cell-based. Particulars: Pseudomonas aeruginosa, PAO1.
The test system of a further assay is B. cenocepacia. Briefly: Resazurin-based assay of BcNR reaction mixtures. It counts as cell-based, Burkholderia cenocepacia. Particulars: BcNR reactions with 1 mM C109, with or without NADPH; C109 result: in the absence of NADPH. From the text: To assess whether the resulting BcNR reduction product could inhibit B. cenocepacia growth, we carried out a resazurin-based assay.
(The colour change of resazurin is a common sign of viable cells or microbes.)

In assay [1] the test system is B. cenocepacia FCF22. The experiment in a line: Checkerboard assay with efflux pump inhibitor PaβN MC-207.110. It is filed as cell-based, Burkholderia cenocepacia. As to conditions: Burkholderia cenocepacia, FCF22; read-out: MIC in the presence of MC-207.110, FCF22. How it is done:
(§1) The microtiter plates were incubated at 37°C for 48 (for B. cenocepacia) or 24 h (for all the other strains) and growth was determined by the resazurin method (Martin et al., [2006]). A solution of resazurin sodium salt (Sigma Aldrich) was prepared at 0.01% in distilled water and filter-sterilized. Thirty microliter of resazurin solution were added to each well after 1 or 2 days of incubation at 37°C, and the microtiters were re-incubated at the same temperature for 4 h. The MIC was defined as the lowest concentration of the drug that prevented a change in color from blue to pink, which indicates bacterial growth. […] Three independent biological replicates were used for each MIC determination.

The subject of assay [2] is B. cenocepacia FCF19. The assay is described as above. It counts as cell-based, Burkholderia cenocepacia. Particulars: Burkholderia cenocepacia, FCF19; read-out: MIC in the presence of MC-207.110, FCF19. How it is done: as §1
The test system of assay [3] is B. cenocepacia FCF22. Briefly: MIC, 2-fold microdilution, resazurin method. As to conditions: Burkholderia cenocepacia; clinical isolate FCF22. It counts as cell-based, Burkholderia cenocepacia.
For assay [4], the system named is B. cenocepacia FCF19. Briefly: MIC, 2-fold microdilution, resazurin method. As to conditions: Burkholderia cenocepacia; clinical isolate FCF19. It is filed as cell-based, Burkholderia cenocepacia.
The test system of assay [5] is B. cenocepacia J2315. The experiment in a line: MIC, 2-fold microdilution, resazurin method. It counts as cell-based, Burkholderia cenocepacia. Particulars: Burkholderia cenocepacia.
The subject of a further assay is S. aureus ATCC 25923. Briefly: MIC, 2-fold microdilution, resazurin method. It counts as cell-based, Staphylococcus aureus. As to conditions: Staphylococcus aureus, ATCC25923.
In assay [6] the test system is B. cenocepacia J2315. Briefly: Time-lapse microscopy, single-cell analysis in microfluidic device. It is filed as cell-based, Burkholderia cenocepacia. As for the experimental part: B. cenocepacia J2315 was cultured over-night in Middlebrook 7H9 broth, supplemented with 10% (v/v) DS enrichment (20 g dextrose, 8.5 g sodium chloride in 1 L water) and 5% (v/v) of a casamino acids solution (10 g casamino acids in 100 ml water). Cells were diluted 10-fold in the same fresh 7H9 medium, and 5 μl of the diluted cell suspension were inoculated into a custom-made microfluidic hexa-device, as previously described (Manina et al., [2019]). Silicone tubing (0.76 mm ID) was connected to each inlet and outlet ports of the hexa-device to enable medium circulation. Two 50 ml syringes were connected to the inlet tubing, and prewarmed 7H9 medium was pumped through the microfluidic device at 15 μl/min. The outlet tubing were inserted into a waste receptacle containing bleach. […] Bacteria were imaged in phase contrast, using a UPLFLN100XO2/PH3/1.30 objective (Olympus) and a high-speed sCMOS camera, with the help of an automated epifluorescence inverted microscope (DeltaVision Elite, GE Healthcare). The microscope was equipped with an environmental chamber maintained at 37°C. Images were recorded at 20-min intervals and up to 46 h. Exposure conditions were as follows: phase 50% T, 150 ms. In each experiment, 190 XY fields were imaged. The same experimental set-up was carried out twice.
Manual segmentation of individual cells and analysis of image stacks were performed using the ImageJ 1.52a software. The Selection Brush Tools was used to draw polygons corresponding to the shape of individual cells and to extract the cell planar area (μm^2). Measurements of the cell area were repeated throughout the generation time of individual cells, to calculate the growth rate by fitting an exponential curve.
Biphasic killing represents the typical pattern of drug persistence, whereby the initial linear mortality of the population is followed by a second phase where a subpopulation of cells is able to endure inhibitory drug concentrations in the absence of genetic mutations (Van den Bergh et al., [2017]). In contrast to drug-resistant cells, which continue to replicate in the presence of the drug, drug-persistent cells either derive from pre-existing non-growing cells or slow down their growth during drug exposure, and their progeny is killed with kinetics similar to that of the initial population (Van den Bergh et al., [2017]; Balaban et al., [2019]). […] To examine the C109 killing dynamics of B. cenocepacia at the single-cell level, we carried out a time-lapse microscopy experiment, divided into several steps. Wild type B. cenocepacia J2315 cells were first seeded into a microfluidic device (Manina et al., [2019]), and perfused with prewarmed 7H9 medium for 3 h, to allow the cells to adapt to the microfluidic environment. […] Cells were then perfused with C109-free 7H9 medium for 12 h, enabling the recovery and expansion of surviving cells. […] During the time-lapse imaging, cells were monitored every 20 min for a total of 46 h. The total number of cells, the single-cell area, and the number of division and lysis events were measured during each step of the experiment.

Turning to `COC(=O)CSc1ccc2nsnc2c1[N+](=O)[O-]` [C109, methyl [(4-nitro-2,1,3-benzothiadiazol-5-yl)thio]acetate], the MIC in the assay with E. coli ATCC 25922 (LB, 24 h, read-out: MIC E. coli 25922) is 8 µg/mL (≈ 28 µM); with E. coli ATCC 25922 (Supplementary Table 1, read-out: MIC (µg/ml) E. coli 25922), 8 µg/mL (≈ 28 µM); in the assay on P. aeruginosa PAO1 (LB, 24 h, read-out: MIC P. aeruginosa PAO1), 128 µg/mL (≈ 449 µM); in the assay with P. aeruginosa PAO1 (Supplementary Table 1, read-out: MIC (µg/ml) P. aeruginosa PAO1) it was 128 µg/mL (≈ 449 µM); in the assay with B. cenocepacia FCF22 [1], 16 µg/mL; in the assay with B. cenocepacia FCF19 [2], 8 µg/mL. Also, the MIC against B. cenocepacia FCF22 [3] worked out at 256 µg/mL (≈ 897 µM); against B. cenocepacia FCF19 [4], 128 µg/mL (≈ 449 µM); in the assay on B. cenocepacia J2315 [5] (J2315, read-out: MIC (µg/ml) B. cenocepacia J2315), 8 µg/mL (≈ 28 µM); in the assay on B. cenocepacia J2315 [5] (J2315, LB, 48 h, read-out: MIC B. cenocepacia J2315), 8 µg/mL (≈ 28 µM); in the assay with S. aureus ATCC 25923 (LB, 24 h, read-out: MIC S. aureus 25923) it was 4 µg/mL (≈ 14 µM); in the assay with S. aureus ATCC 25923 (Supplementary Table 1, read-out: MIC (µg/ml) S. aureus 25923) it was 4 µg/mL (≈ 14 µM). The “activity against B. cenocepacia growth” value with B. cenocepacia is listed as “still active”. Further, in the assay with B. cenocepacia J2315 [6] (8 of 3,000 elongated cells formed during first exposure), the “elongated cells that resumed normal growth during washout (possible persistent cells)” value is reported as 0.27%. Further, the “cells died from lysis, first treatment” value in the assay with B. cenocepacia J2315 [6] (C109 100 μg/ml (12.5X-MIC), 4 h) was determined as 70%. Further, the “cells still able to grow with considerable filamentation, first treatment” value in the assay on B. cenocepacia J2315 [6] (C109 12.5X-MIC, 4 h) was found to be 3.5%. Further, the “cells that stopped to divide (sensitive), second treatment” value in the assay on B. cenocepacia J2315 [6] (C109 12.5X-MIC, 24 h) amounted to 94%. Further, in the assay on B. cenocepacia J2315 [6] (C109 12.5X-MIC, 24 h), the “decline in cell population, second treatment” value is reported as 92%. In addition, the “cells with elongated phenotype, second treatment” value in the assay with B. cenocepacia J2315 [6] (C109 12.5X-MIC, 24 h, of the total cell number) is recorded as roughly 6%. In addition, in the assay with B. cenocepacia J2315 [6] (C109 washout with fresh medium), the “filamentous cells that started again to divide during washout” value came to 30%. Also, the “increase of cell area, cells dying by lysis” value in the assay with B. cenocepacia J2315 [6] (first treatment) is 2 fold. Besides, the “increase of cell area, filamentous cells” value in the assay with B. cenocepacia J2315 [6] (first treatment) is listed as “up to 5 fold”. Moreover, the “increase of cell area, elongated cells” value in the assay on B. cenocepacia J2315 [6] (second treatment, 8–10 μm^2) is on record as “up to 10 fold”.
